{
  "source": "DBAASP",
  "test_in_all_cases": "≥ marks a high value that may be exact or a test limit, other limits are often not marked, values filed in µg/mL are converted to µM",
  "key": {"Staphylococcus aureus 75": {"tested_on": "Staphylococcus aureus 75"}, "[1]": {"tested_on": "Bacillus subtilis ATCC 23857"}, "[2]": {"tested_on": "Escherichia coli ATCC 25922"}, "[3]": {"tested_on": "Acinetobacter baumannii ATCC 19606"}, "[4]": {"tested_on": "Pseudomonas aeruginosa ATCC 9027"}, "[5]": {"tested_on": "Acinetobacter baumannii 9931"}, "[6]": {"tested_on": "Acinetobacter baumannii 97830"}, "[7]": {"tested_on": "Pseudomonas aeruginosa 73"}, "[8]": {"tested_on": "Staphylococcus aureus ATCC 29213"}, "[9]": {"tested_on": "Pseudomonas aeruginosa ATCC 27853"}, "[10]": {"tested_on": "Klebsiella pneumoniae ATCC 700603"}, "[11]": {"tested_on": "Pseudomonas aeruginosa 50"}, "Escherichia coli 780": {"tested_on": "Escherichia coli 780"}, "[12]": {"tested_on": "Staphylococcus epidermidis ATCC 12228"}, "Escherichia coli 804": {"tested_on": "Escherichia coli 804"}, "[13]": {"tested_on": "Staphylococcus aureus ATCC 25923"}, "[14]": {"tested_on": "Staphylococcus aureus 113"}, "[15]": {"tested_on": "Bacillus licheniformis X39"}, "[16]": {"tested_on": "Rhodococcus rhodochrous X15"}, "Serratia rubidaea X01": {"tested_on": "Serratia rubidaea X01"}, "[17]": {"tested_on": "Staphylococcus carnosus KHS"}, "[18]": {"tested_on": "Staphylococcus aureus ATCC 2592"}, "[19]": {"tested_on": "Psychrobacter faecalis X29"}},
  "note": "Values joined by “and” are separate entries in the source; they are usually repeats but may differ in a detail not shown here. Identical values can stand only once.",
  "data": [
    {"smiles": "NCC(=O)N[C@@H](CCCN=C(N)N)C(=O)N[C@@H](Cc1c[nH]c2ccccc12)C(=O)N[C@@H](Cc1c[nH]c2ccccc12)C(=O)N[C@@H](Cc1c[nH]c2ccccc12)C(=O)N[C@@H](CCCN=C(N)N)C(=O)NCC(N)=O", "note": "[GRWWWRG]", "values": [
      {"measurement": "MIC", "setting": "Staphylococcus aureus 75", "result": "≥ 64", "unit": "µM"},
      {"measurement": "MIC", "setting": "[1]", "result": 16, "unit": "µM"},
      {"measurement": "MIC", "setting": "[2]", "result": "> 128", "unit": "µM"},
      {"measurement": "MIC", "setting": "[3]", "result": "> 128", "unit": "µM"},
      {"measurement": "MIC", "setting": "[4]", "result": "> 128", "unit": "µM"},
      {"measurement": "MIC", "setting": "[5]", "result": "≥ 128", "unit": "µM"},
      {"measurement": "MIC", "setting": "[6]", "result": "≥ 128", "unit": "µM"},
      {"measurement": "MIC", "setting": "[7]", "result": "≥ 128", "unit": "µM"},
      {"measurement": "MIC", "setting": "[8]", "result": 8, "unit": "µM"},
      {"measurement": "MIC", "setting": "[9]", "result": "> 128", "unit": "µM"},
      {"measurement": "MIC", "setting": "[10]", "result": "> 128", "unit": "µM"},
      {"measurement": "MIC", "setting": "[11]", "result": "≥ 128", "unit": "µM"},
      {"measurement": "MIC", "setting": "Escherichia coli 780", "result": "≥ 128", "unit": "µM"},
      {"measurement": "MIC", "setting": "[12]", "result": 64, "unit": "µM"},
      {"measurement": "MIC", "setting": "Escherichia coli 804", "result": "≥ 128", "unit": "µM"},
      {"measurement": "MIC", "setting": "[13]", "result": "64 µM and 128 µM"},
      {"measurement": "MIC", "setting": "[14]", "result": "≥ 64", "unit": "µM"}
    ]},
    {"smiles": "CC[C@H](C)[C@H](NC(=O)CNC(=O)[C@H](CCCCN)NC(=O)[C@@H](NC(=O)[C@H](CC(C)C)NC(=O)CNC(=O)[C@H](CC(N)=O)NC(=O)[C@H](CCCCN)NC(=O)[C@@H](NC(=O)[C@H](Cc1c[nH]c2ccccc12)NC(=O)[C@H](CO)NC(=O)CNC(=O)[C@H](CCCCN)NC(=O)CNC(=O)[C@H](CCCCN)NC(=O)[C@H](CCCCN)NC(=O)[C@H](Cc1ccccc1)NC(=O)[C@H](CO)NC(=O)[C@@H](NC(=O)[C@@H](N)CCCN=C(N)N)[C@@H](C)CC)[C@@H](C)CC)[C@@H](C)CC)C(=O)N[C@@H](CCCCN)C(=O)NCC(=O)N[C@@H](CC(C)C)C(=O)NCC(=O)N[C@@H](CCCCN)C(=O)N[C@@H](CCC(=O)O)C(=O)N[C@H](C(=O)N[C@@H](CO)C(=O)N[C@@H](CC(C)C)C(=O)N[C@@H](CC(=O)O)C(=O)N[C@H](C(=O)N[C@H](C(=O)N[C@@H](CCCN=C(N)N)C(=O)N[C@H](C(=O)NCC(=O)N[C@H](C(=O)N[C@@H](CC(=O)O)C(=O)N[C@H](C(=O)N[C@@H](C)C(=O)NCC(=O)N[C@H]1CSSC[C@@H](C(=O)O)NC(=O)[C@H](CCC(=O)O)NC(=O)CNC(=O)[C@H](CCCCN)NC(=O)[C@H]([C@@H](C)CC)NC(=O)[C@H](CCCCN)NC1=O)[C@@H](C)CC)[C@@H](C)CC)[C@@H](C)O)[C@@H](C)CC)C(C)C)[C@@H](C)CC", "note": "[RISFKKGKGSWIKNGLIKGIKGLGKEISLDVIRTGIDIAGCKIKGEC]", "values": [
      {"measurement": "MIC", "setting": "[2]", "result": 5, "unit": "µM"},
      {"measurement": "MIC", "setting": "[15]", "result": 10, "unit": "µM"},
      {"measurement": "MIC", "setting": "[16]", "result": 0.3, "unit": "µM"},
      {"measurement": "MIC", "setting": "Serratia rubidaea X01", "result": 10, "unit": "µM"},
      {"measurement": "MIC", "setting": "[17]", "result": 1.3, "unit": "µM"},
      {"measurement": "MIC", "setting": "[18]", "result": 0.6, "unit": "µM"},
      {"measurement": "MIC", "setting": "[19]", "result": 0.6, "unit": "µM"}
    ]},
    {"smiles": "CC(C)[C@H](N)C(=O)N[C@@H](CCCN=C(N)N)C(=O)N[C@@H](Cc1c[nH]c2ccccc12)C(=O)N[C@@H](Cc1c[nH]c2ccccc12)C(=O)N[C@@H](Cc1c[nH]c2ccccc12)C(=O)N[C@@H](CCCN=C(N)N)C(=O)N[C@H](C(N)=O)C(C)C", "note": "[VRWWWRV]", "values": [
      {"measurement": "MIC", "setting": "Staphylococcus aureus 75", "result": "≥ 32", "unit": "µM"},
      {"measurement": "MIC", "setting": "[1]", "result": 8, "unit": "µM"},
      {"measurement": "MIC", "setting": "[3]", "result": 128, "unit": "µM"},
      {"measurement": "MIC", "setting": "[4]", "result": 64, "unit": "µM"},
      {"measurement": "MIC", "setting": "[5]", "result": "≥ 128", "unit": "µM"},
      {"measurement": "MIC", "setting": "[6]", "result": "≥ 128", "unit": "µM"},
      {"measurement": "MIC", "setting": "[7]", "result": "≥ 128", "unit": "µM"},
      {"measurement": "MIC", "setting": "[8]", "result": 32, "unit": "µM"},
      {"measurement": "MIC", "setting": "[9]", "result": 64, "unit": "µM"},
      {"measurement": "MIC", "setting": "[10]", "result": 64, "unit": "µM"},
      {"measurement": "MIC", "setting": "[11]", "result": "≥ 64", "unit": "µM"},
      {"measurement": "MIC", "setting": "Escherichia coli 780", "result": "≥ 64", "unit": "µM"},
      {"measurement": "MIC", "setting": "[12]", "result": 8, "unit": "µM"},
      {"measurement": "MIC", "setting": "Escherichia coli 804", "result": "≥ 64", "unit": "µM"},
      {"measurement": "MIC", "setting": "[14]", "result": "≥ 32", "unit": "µM"}
    ]}
  ]
}
